# Measurements as given in patent publication US11198869B2, “Angelman syndrome antisense treatment” (The Texas A&M University System, priority 2017, dated 2021).
# Tested on: UBE3A-AS
# Assay: UBE3A-AS steady state RNA (TaqMan qRT-PCR) in GABAergic iPSC-derived neurons
# Format: cell-based, human
# Conditions: candidate ASOs
substance,measurement,setting,value
U^O*A^O-G^O*A^O-A^O*t-g*g-c*a-c*a-t*c-t*C^O-U^O*U^O-G^O*G^o [ASO-4.0.PO-2.O],"30 μM (Mean), normalized UBE3A-AS RNA level relative to vehicle","30 μM, 18 DIV to 24 DIV",0.6
same,Emax (normalized UBE3A-AS RNA level relative to vehicle),"18 DIV to 24 DIV, 4-parameter logistic (Hill)",−0.3
same,IC50,"treated 18 DIV, RNA 24 DIV, 10-point dose curve, n=2, full model, 4-parameter logistic (Hill)",130 µM
